In patent US9999636B2, “Insulin-mimetics as therapeutic adjuncts for bone regeneration” (Rutgers, The State University of New Jersey, priority 2010, dated 2018):
Marks after values point to notes of the source that are not given here.

Columns and labels:
[1] = system: closed mid-diaphyseal femur fracture; experiment: Torsional mechanical testing of fractured femora, local ZnCl2 with or without CaSO4 carrier; type: in vivo, BB Wistar rat; parameters: Percent Effective Shear Stress: scale not given: direction of the effect not stated beside the values; settings: for mode of torsional failure: femurs harvested 4 weeks post-surgery (FIG. 2)
Excerpt: In addition to the biomechanical parameters determined through torsional testing, the mode of failure can also provide substantial information. The mode of torsional failure as determined by gross inspection provided an indication as to the extent of healing. A spiral failure in the mid-diaphyseal region indicated a complete union while a transverse failure through the fracture site indicated a nonunion. A combination spiral/transverse failure indicated a partial union (FIG. 2).
To prepare the ZnCl2/CaSO4 mixture, CaSO4 (2 g) were placed in glass vials. The vials were placed in an autoclave and sterilized […] in a dry cycle. CaSO4 powder (0.8 g) was mixed with 400 μl of saline or 400 μl of ZnCl2 solution (1.0 mg/kg) for one minute at room temperature. The mixture was packed into the barrel of a 1 cc sterile syringe and pushed down into the open orifice of the syringe barrel by insertion of the syringe plunger. After attaching an 18-gauge sterile needle to the syringe barrel, 0.1 ml volume of the mixture was directly injected into the rat femoral canal (non-diabetic BB Wistar rat) prior to Kirschner wire insertion and fracture.

[2] = 10.0 mg/kg local, no carrier
Excerpt: Diabetic Resistance (DR) BB Wistar rats used in the study were obtained from a breeding colony at UMDNJ-New Jersey Medical School (NJMS). The rats were housed under controlled environmental conditions and fed ad libitum. All research protocols were approved by the Institutional Animal Care and Use Committee at University of Medicine and Dentistry of New Jersey-New Jersey Medical School.
Doses of ZnCl2 were not based on each animal's body weight, but on a lower theoretically tolerable dose for a 290-gram BB Wistar rat, which would not elicit heavy metal poisoning or behavioral changes. This weight is over 50 grams lower than the average weight of non-diabetic BB Wistar rats at an age of approximately 90 days (the age of investigation in this study). A 0.1 ml volume of the ZnCl2 solution was administered locally via a single injection into the marrow space for each dose examined.

[3] = system: posterolateral intertransverse lumbar fusion L4-L5; experiment: Radiographic grading of posterolateral lumbar spinal fusion; type: in vivo, Sprague-Dawley rat; settings: n = 10, eight weeks
[4] = system: closed mid-diaphyseal femur fracture; settings: four weeks post-fracture
Excerpt: X-rays are taken at two-week intervals to the day of euthanasia. After euthanasia x-rays are taken as well. To take x-rays, animals will be given a half dose of anesthesia. All groups will be monitored closely for four days after surgery for infection, and the ability to ambulate freely.

[5] = high dose 1.0 mg/kg Calcium Sulfate pellet, 1 mg/kg
[6] = low dose 0.5 mg/kg Calcium Sulfate pellet, listed as zinc, 0.5 mg/kg

Compound: [Cl-].[Cl-].[Zn+2] [ZnCl2, Zinc chloride]
- mode of torsional failure ([1]; 1.0 mg/kg): spiral fracture indicative of healing
- mode of torsional failure ([1]; 3.0 mg/kg): spiral fracture indicative of healing
- Percent Effective Shear Stress ([1]; 10.0 mg/kg, no carrier, 4 weeks post-fracture, normalized to contralateral (intact) femur): 27 ± 11%
- time in which fracture healing resolved ([1]; applied directly to fracture site, instead of average eight to ten weeks in standard rat femur fracture model): four to five weeks
- Blood Glucose 12 Hours Post-Surgery [2]: 87.7 ± 8.5 ^a mg/dl

Compound: [Zn] [Zn]
- Radiographs: number graded A = solid fusion mass bilaterally [3, 5]: 7
- Radiographs: number graded D = Graft resorption [3, 5]: 0
- Radiographs: number graded A = solid fusion mass bilaterally [3, 6]: 7/10
- Radiographs: number graded D = Graft resorption [3, 6]: 0/10

Compound: manganese chloride [MnCl2]
- mineralized tissue on radiographs ([4]; 0.25 mg/kg, vs saline controls): increased mineralized tissue
- union on radiographs ([4]; saline control had no evidence of union): demonstrated union at the subperiosteal bony area and at the callus
